# Assay results published in PMC9405524, “Pre‐steady‐state kinetics and solvent isotope effects support the “billiard‐type” transport mechanism in Na ^+‐translocating pyrophosphatase” (Protein Science : A Publication of the Protein Society, 2022).
# Target: T1, Tm‐mPPase (Thermotoga maritima membrane pyrophosphatase) (Thermotoga maritima, UniProt Q9S5X0)
# T1 construct: gene hppA; recombinant in E. coli C41(DE3), assayed in inverted membrane vesicles; homodimer, subunit mass 77 kDa
# T1 sequence (Q9S5X0 1-726): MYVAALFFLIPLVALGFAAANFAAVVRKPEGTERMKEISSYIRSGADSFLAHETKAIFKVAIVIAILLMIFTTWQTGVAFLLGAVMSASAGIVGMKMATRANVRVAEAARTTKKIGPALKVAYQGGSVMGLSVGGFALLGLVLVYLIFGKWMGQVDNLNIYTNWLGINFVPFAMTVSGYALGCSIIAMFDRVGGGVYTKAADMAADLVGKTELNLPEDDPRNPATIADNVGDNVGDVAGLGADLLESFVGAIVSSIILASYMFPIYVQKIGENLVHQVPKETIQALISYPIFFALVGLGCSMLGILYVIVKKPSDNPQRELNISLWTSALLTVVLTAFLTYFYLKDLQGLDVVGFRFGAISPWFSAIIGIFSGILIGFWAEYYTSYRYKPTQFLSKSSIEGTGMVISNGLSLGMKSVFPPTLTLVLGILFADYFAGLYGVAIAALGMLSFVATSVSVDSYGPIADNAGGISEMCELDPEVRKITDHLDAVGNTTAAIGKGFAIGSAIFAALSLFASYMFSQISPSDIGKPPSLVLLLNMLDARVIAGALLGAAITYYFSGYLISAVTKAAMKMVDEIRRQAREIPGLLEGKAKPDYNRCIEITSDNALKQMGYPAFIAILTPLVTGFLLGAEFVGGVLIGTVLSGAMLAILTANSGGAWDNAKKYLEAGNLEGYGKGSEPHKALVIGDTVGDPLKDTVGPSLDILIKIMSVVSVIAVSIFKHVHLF
# Assay: inhibition of PPi hydrolysis, active-site titration in inverted membrane vesicles, Pi analyzer
# Format: biochemical
# Conditions: 25°C, pH 7.2, 5 mM MgCl2, 100 mM NaCl, no K+, 8 μM PPi; competitive; tight-binding fit; apparent, not corrected for substrate; read-out: K i ^app
compound,measurement,value
NC(P(=O)(O)O)P(=O)(O)O [AMDP],Ki,5 ± 2 nM
